The values that follow come from PMC7867015, “New Antiproliferative Triflavanone from Thymelaea hirsuta—Isolation, Structure Elucidation and Molecular Docking Studies” (Molecules, 2021).

What all share (format): cell-based
Series [1] in a line: SRB cytotoxicity assay, Vero normal cells. The note with it: African green monkey, Vero E6 cells (normal cells), read-out: In vitro cytotoxic effect IC50, Vero. The procedure: (§1) The cell lines used in this study were purchased from the National Cancer Institute, Cairo, Egypt and maintained in Dulbecco’s Modified Eagle Medium/F-12 (DMEM⁄F12, Sigma-Aldrich, USA), supplemented with 2 mM L-glutamine (Lonza, Belgium) and 10% fetal bovine serum (FBS, Sigma-Aldrich, MO, USA), 1% penicillin-streptomycin (Lonza, Belgium). All cells were cultured following routine tissue culture work, and treated with serial concentrations of the compounds for 48 h. Absorbance was subsequently measured (at 570 nm) using ELISA microplate reader (BIO-RAD, model iMark, Japan). The viability was calculated relative to a control and the IC50 values were determined using the non-linear regression curve fit, as previously reported in [44]
(§2) The cytotoxic activities of the isolated compounds against HepG2, VERO E6, MCF-7 and HCT-116 cells were tested using the sulforhodamine-B (SRB) assay and the results are represented in figure e and Table 2.
(Sulforhodamine B stains cellular protein and so reports cell mass.)

The nature of series [2]: SRB cytotoxicity assay, HepG2 cells. The note with it: human, read-out: In vitro cytotoxic effect IC50, HepG2. The procedure: as §1, §2
Series [3] relates to MCF-7 cells. As to the kind of experiment: SRB cytotoxicity assay, MCF-7 cells. Conditions: Homo sapiens, MCF7, 48 h, read-out: IC50 against MCF-7 cells. The procedure: as §1, §2
For series [4], the system named is HCT-116 cells. The experiment in a line: SRB cytotoxicity assay, HCT-116 cells. The note with it: Homo sapiens, 48 h, read-out: IC50 against HCT-116 cells. The procedure:
as §1, §2

Series [5] concerns caspase-9. As to the kind of experiment: ELISA assay for apoptotic marker caspase-9 in MCF-7 cells. Conditions: 4.26 μM, 48 h, control 5.16 pg/mL. The source says:
(§3) To further investigate the apoptotic pathway of compound 1 in both untreated and treated MCF-7 cells, we investigated the enzymatic assays for apoptotic markers BAX (EIA-4487, DRG International®, Springfield, NJ, USA) and caspase-9 (EIA-4860, DRG International®, USA) as proapoptotic genes and BCL2 (Cat. No. 99-0042, Zymed®, CA, USA) as the anti-apoptotic gene, following the manufacturer’s instructions.
(In general: In an ELISA, binding on a coated surface is turned into a signal by an enzyme label.)

Series [6] deals with BAX. The experiment in a line: ELISA assay for apoptotic marker BAX in MCF-7 cells. Conditions: 4.26 μM, 48 h, control 43.6 pg/mL.
Excerpt: as §3

Series [7] has as its system Vero cells. The experiment in a line: SRB cytotoxicity assay, Vero normal cells. Conditions: 48 h, read-out: In vitro cytotoxic effect IC50, Vero. The procedure: as §1, §2
In series [8] the test system is MCF-7 cells. The experiment in a line: Annexin V/PI staining, flow cytometry (apoptosis). Conditions: 48 h. The procedure:
(§4) Apoptosis rate in cells was quantified using annexin V-FITC (BD Pharmingen, San Diego, CA, USA). MCF-7 cells were seeded into 6-well culture plates (3–5 × 10^5 cells/well) and incubated overnight. The cells were then treated with compound 1 for 48 h. Next, media supernatants and cells were collected and rinsed with ice-cold PBS. The next step was suspending the cells in 100 µL of annexin binding buffer solution 25 mM CaCl2, 1.4 M NaCl, and 0.1 M Hepes/NaOH, pH 7.4 and incubation with annexin V-FITC solution (1:100) and propidium iodide (PI) at a concentration of 10 µg/mL in the dark for 30 min. Stained cells were then acquired by a Cytoflex FACS machine. Data were analyzed using cytExpert software v.2.3.
In general terms: A flow cytometer gives signals particle by particle.

For series [9], the system named is MCF-7 cells. As to the kind of experiment: DNA content flow cytometry cell cycle analysis. The note with it: 4.26 μM, 48 h. The procedure:
Cell cycle analysis is an important test that determines the percentages of the cell population that are in each cell phase.. In this studyMCF-7 cancer cells were treated with compound 1, and then subjected to DNA flow cytometry to determine the stage where cell proliferation was arrested in the cell cycle.
as §4

Series [10] concerns BCL2. As to the kind of experiment: ELISA assay for anti-apoptotic marker BCL2 in MCF-7 cells. Conditions: 4.26 μM, 48 h, control 7.59 ng/mL.
Excerpt: as §3

As for `O=C(C=Cc1ccc(O)cc1)OCC1OC(Oc2c(-c3ccc(O)cc3)oc3cc(O)cc(O)c3c2=O)C(O)C(O)C1O` (stereo not drawn) [Compound 8, trans-tiliroside], the values for the 50% inhibitory concentration (IC50) at 48 h in [1] and in series [2] were 50.5 µM and 15.1 µM, respectively.
As for `COc1cc2cc(Oc3ccc4ccc(=O)oc4c3)c(=O)oc2cc1OC` [Compound 2, daphnoretin methyl ether], the IC50 (usually the concentration that gives 50% inhibition) in series [3] was 66.1 µM; in [4] it was 101 µM. Also, the IC50 at 48 h in series [2] worked out at 12.3 µM.
On to `O=C(O)c1ccc(O)cc1` [Compound 9, p-hydroxy benzoic acid], for which the IC50 at 48 h in [1] worked out at 203 µM; in series [2], 32.6 µM.
Turning to `COc1cc2cc(Oc3ccc4ccc(=O)oc4c3)c(=O)oc2cc1OC(C)=O` [Compound 5, acetyldaphnoretin], the IC50 in [3] was determined as 46.4 µM; in [4], 24.4 µM. Moreover, the IC50 at 48 h in [2] worked out at 9.4 µM.
With `O=c1ccc2ccc(Oc3cc4cc(O)c(O)cc4oc3=O)cc2o1` [Compound 6, edgeworthin], the IC50 at 48 h in series [1] was above 148 µM; in series [2], 32.5 µM.
Take `COc1cc2oc(=O)c(Oc3ccc4ccc(=O)oc4c3)cc2cc1O` [Compound 3, rutamontine]: the IC50 at 48 h in [1] is above 142 µM; in [2] it was 29.8 µM.
Take `COc1cc2cc(O)c(=O)oc2cc1Oc1ccc2ccc(=O)oc2c1` [Compound 4, neodaphnoretin]: the half-maximal inhibitory concentration (IC50) at 48 h was found to be 124 µM in series [1] and 27.2 µM in [2].
As for `O=C1c2c(O)cc(O)cc2OC(c2ccc(O)cc2)C1Oc1ccc(C2Oc3cc(O)cc(O)c3C(=O)C2C2C(=O)c3c(O)cc(O)cc3OC2c2ccc(O)cc2)cc1` (centres unmarked) [Compound 1, 2-(4-((5,7-dihydroxy-2-(4-hydroxyphenyl)-4-oxochroman-3-yl)oxy)phenyl)-5,5′,7,7′-tetrahydroxy-2′-(4 hydroxyphenyl)-[3,3′-bichromane]-4,4′-dione], the IC50 worked out at 4.26 µM in series [3], 9.6 µM in series [4] and 56.6 µM in [7]. Also, the caspase-9 level in series [5] was found to be 21.14 pg/mL. This compound registered a BAX level in [6] of 362 pg/mL. For the same compound, the half-inhibitory concentration (IC50) at 48 h is above 50 µM in [1] and 8.6 µM in [2]. For the same compound, the “apoptotic cell death increase” value in series [8] (MCF-7 cells treated at IC50 = 4.26 μM, versus untreated control) was 14.97 fold. The “Apoptosis Late” value in [8] (MCF-7 cells, 4.26 μM, control 0.23%) is on record as 22.52%. Further, in series [8] (MCF-7 cells, 4.26 μM, control 0.61%), the “Apoptosis Early” value is given as 2.44%. Besides, the “Apoptosis Total (apoptosis ratio)” value in series [8] (MCF-7 cells, 4.26 μM, control 2.71%) was 40.57%. Further, the Pre-G1 cell population in series [9] (control 2.71%) was found to be 40.57%. Besides, the “change in cell population in G0/G1, S or G2/M phase” value in series [9] (versus control) is “no significant change”. The compound also yielded a BCL2 level in series [10] of 2.85 ng/mL.
Regarding `COc1cccc2c1C(=O)c1c(O)c3c(c(O)c1C2=O)C[C@@](O)(C(=O)CO)C[C@@H]3O[C@H]1C[C@H](N)[C@H](O)[C@H](C)O1` [Doxo, Doxorubicin, reference compound], the IC50 at 48 h was 45.8 µM in series [1] and 7.7 µM in [2].
